According to patent US20240148679A1, “METHODS AND COMPOSITIONS RELATED TO TREATMENT AND PREVENTION OF CANCER BY INHIBITION OF DGAT1 AND DGAT2” (Ohio State Innovation Foundation, priority 2019, published 2024):
Entries after “also recorded” stand apart in the source; their conditions may differ.

Assays:
Type in all cases: cell-based, human
GBM cells = test: GBM cell death, trypan blue counting; conditions: for cell death caused by DGAT1 inhibition (rescue): co-treatment with DGAT1 inhibition (A-922500 20 μg/ml, 3 days), U251
GBM cells (U251) = test: ROS detection with CellROX Deep Red; conditions: co-treatment (NAC 1 mM; ETO 6 μM) with DGAT1 inhibition
Method: (A, B) Transmission electron microscopy (TEM) analysis of the mitochondrial morphology in GBM cells (U251) treated with the DGAT1 inhibitor A-922500 (20 μg/ml) or DGAT2 inhibitor PF-06424439 (20 μg/ml) for 24 hr and shown in a or infected with shRNA-expressing lentivirus against DGAT1 for 48 hr and shown in b. Scale bar, 500 nm. Mitochondria are indicated by red arrows. Mitochondria length and loss of cristae (%) were quantified by ImageJ over 100 mitochondria in each group (mean±SEM). Statistical significance was determined by one-way ANOVA. * P<0.0001. (C, D) Representative fluorescence images of LDs (green) and mitochondria (red) in U251 cells treated with DGAT1 or DGAT2 inhibitor and shown in c or shRNA in (D) as in panels (A, B). […] The percentage of cells with tubular or fragmented mitochondria was quantified by ImageJ in more than 100 cells (mean±SEM). Statistical significance was determined by one-way ANOVA. * P<0.001. […] Lower panels show the quantification of relative basal and maximal OCR change (details please see Methods). […] Basal OCR was determined as OCR before oligomycin subtract OCR after rotenone addition, and maximal OCR was determined as OCR after FCCP subtract OCR after rotenone addition. Statistical significance was determined by one-way ANOVA. * P<0.0001. […] ROS were detected with CellROX Deep Red, and mitochondria were stained with MitoTracker Green. […]

liver cancer cells = test: Liver cancer cell death with DGAT1 and DGAT2 inhibitors alone or in combination
Method: MHCC97L 6×10^4 12 well plate, treated at 24 hours with 1% FBS DMEM with DGAT1 and DGAT2 inhibitors. Picture taken on day 4.
HEPG2 6×10^4 12 well plate, treated at 24 hours with 1% FBS DMEM with DGAT1 and DGAT2 inhibitors. Picture taken on day 4.
HeG2 8×10^4 12 well plate, treated at 24 hours with 1% FBS DMEM with DGAT1 and DGAT2 inhibitors. Picture taken on day 4.
Huh7 4×10^4 12-well plate, treated at 24 hours with 1% FBS DMEM with DGAT1 and DGAT2 inhibitors. Picture taken on day 4.
Hep3B 6×10^4 12-well plate, treated at 24 hours with 1% FBS DMEM with DGAT1 and DGAT2 inhibitors. Picture taken on day 4.
Huh7 6×10^4 12-well plate, treated at 24 hours with 1% FBS DMEM with DGAT1 and DGAT2 inhibitors. Picture taken on day 4.

[1] = DGAT1 inhibitor in combination with DGAT2 inhibitor

In the case of Cc1cc(=O)oc2c(C=O)c(O)ccc12 [4μ8C], the “cell death caused by DGAT1 inhibition (rescue)” value (GBM cells) is reported as “did not exert any rescue effects; also recorded: No rescue effects”.
For CCOC(=O)[C@@]1(CCCCCCOc2ccc(Cl)cc2)CO1 [ETO], the “cell death caused by DGAT1 inhibition (rescue)” value (GBM cells) was “significantly reduced” and the “ROS caused by DGAT1 inhibition” value (GBM cells (U251)) was “significantly reduced”.
For Cc1cccc(CC(=O)N2CCc3c2ccc(-c2cn(C)c4ncnc(N)c24)c3F)n1 [GSK2656157], the “cell death caused by DGAT1 inhibition (rescue)” value (GBM cells) was “did not exert any rescue effects; also recorded: No rescue effects”.
With N#Cc1ccc(Oc2ccc(/C=C3\SC(=NCCc4ccccn4)NC3=O)cc2F)c(Br)c1 [JNJ DGAT2-A] the “liver cancer cell death” value (liver cancer cells; [1]) was “effective to kill liver cancer cells” and the “liver cancer cell death” value (liver cancer cells; each single inhibitor) was “no ability to induce liver cancer cell death”.
For CC(=O)N[C@@H](CS)C(=O)O [NAC, N-acetyl-cysteine], the “acylcarnitine-induced GBM cell death” value (GBM cells; NAC 1 mM with acylcarnitines 20 μM, 2 days) was “significantly reduced”, the “cell death caused by DGAT1 inhibition (rescue)” value (GBM cells) was “significantly decreased” and the “ROS caused by DGAT1 inhibition” value (GBM cells (U251)) was “significantly decreased”.
For O=C(O)C[C@H]1CC[C@H](c2ccc(-c3ccc(Nc4ccc(C(F)(F)F)nc4)cn3)cc2)CC1 [Pradigastat], the “liver cancer cell death” value (liver cancer cells; [1]) was “effective to kill liver cancer cells” and the “liver cancer cell death” value (liver cancer cells; each single inhibitor) was “no ability to induce liver cancer cell death”.
CCCCCCC(=O)CCCCCC/C=C/C[C@@H](O)[C@H](O)[C@@](N)(CO)C(=O)O [myriocin] was tested, and the “cell death caused by DGAT1 inhibition (rescue)” value (GBM cells) was “no rescue effects; also recorded: does not rescue cell death”.
